In paper PMC9309146 (Advances in Therapy, 2022):
Where two headings read alike, the source gives them in different places.

Key:
[1] = Population PK; assay type: in vivo, human
[2] = MURANO popPK evaluation ref 24; cited from earlier work
[3] = Exposure-safety analysis; assay type: in vivo, human; settings: logistic regression
[4] = legacy popPK analysis ref 20; cited from earlier work

## CC1(C)CCC(CN2CCN(c3ccc(C(=O)NS(=O)(=O)c4ccc(NCC5CCOCC5)c([N+](=O)[O-])c4)c(Oc4cnc5[nH]ccc5c4)c3)CC2)=C(c2ccc(Cl)cc2)C1 [venetoclax]
[1]; current analysis
  rituximab co-administration effect: increase in CL/F: 7%
[1]; dose decrease from 400 to 200 mg
  increase in F1: 11.0%
[1]; dose increase from 400 to 800 mg
  decrease in F1: 9.9%
[1]; fasting state relative to low-fat state
  decrease in F1: 66.2%
[1]; females than males
  V2/F lower: 29.7%
[1]; forward addition covariate testing
  effect of obinutuzumab co-administration on CL/F and F1: no effect
[1]; high-fat meal relative to low-fat
  increase in F1: 44.3%
[1]; human, in vivo
  relationship between CL/F and body weight, age, gender, mild or moderate hepatic or renal impairment, CrCL, bilirubin, ALT, AST, albumin, P-glycoprotein or weak CYP3A inhibitors: no relationship was observed
[1]; meal-fed state without specification of fat content
  increase in F1: 28.9%
[1]; moderate-fat meal relative to low-fat
  increase in F1: 40.4%
[1]; patients compared with healthy individuals
  V2/F higher: 73.3%
[1]; with OATP1B3 hepatic uptake transporter inhibitors
  decrease in CL/F: 13.6%
[1]; with moderate CYP3A inhibitors
  decrease in CL/F: 13.9%
[1]; with strong CYP3A inhibitors
  decrease in CL/F: 82.2%
[2]
  rituximab co-administration effect: decrease in CL/F: 7%
[3]
  p value, association of CmeanSS,nominal with probability of SAEs: 0.214
  p value, association of CmeanSS,nominal with probability of grade ≥ 3 infections: 0.149
[4]
  rituximab co-administration effect: increase in CL/F: 22%
